In patent US20220041606A1, “POSITIVE ALLOSTERIC MODULATORS OF THE MUSCARINIC ACETYLCHOLINE RECEPTOR M1” (Vanderbilt University, priority 2020, published 2022):

Columns and labels:
[1] = biological target: T1, human mAChR M1 (Homo sapiens, UniProt P11229); experiment: mAChR M1 cell-based functional assay (calcium mobilization), PAM activity: increase in the EC20 acetylcholine response; settings: CHO-K1 cells expressing hM1; potentiation of EC20 acetylcholine response
T1 construct: host or cells: CHO-K1 cells (ATCC), stably transfected using Lipofectamine2000
T1 sequence (P11229 1-460): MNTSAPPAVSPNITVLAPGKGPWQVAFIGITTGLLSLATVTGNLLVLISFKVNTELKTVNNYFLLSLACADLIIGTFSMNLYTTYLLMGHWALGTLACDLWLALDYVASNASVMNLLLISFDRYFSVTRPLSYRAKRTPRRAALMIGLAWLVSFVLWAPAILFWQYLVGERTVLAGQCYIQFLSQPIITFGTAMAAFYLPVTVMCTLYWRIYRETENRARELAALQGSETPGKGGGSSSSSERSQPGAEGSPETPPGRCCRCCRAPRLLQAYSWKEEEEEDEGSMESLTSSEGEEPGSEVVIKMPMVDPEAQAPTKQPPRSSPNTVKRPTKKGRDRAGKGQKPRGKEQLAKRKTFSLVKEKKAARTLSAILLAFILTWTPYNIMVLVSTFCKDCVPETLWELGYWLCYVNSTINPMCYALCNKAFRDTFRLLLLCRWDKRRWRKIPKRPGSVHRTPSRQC
Summary of the method: (§1)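 CHO-K1 cells stably expressing hM1, loaded with Fluo-4 AM; calcium flux read on FDSS 6000. Compound (11-point, 1:3 CRC) added at 4 s, EC20 acetylcholine at 144 s, EC80 at 230 s; agonism from response to compound alone, PAM from increase in EC20 response; Emax relative to acetylcholine maximum, four-parameter fit.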

[2] = biological target: T1, human mAChR M1; experiment: mAChR M1 cell-based functional assay (calcium mobilization), agonist activity upon compound addition; settings: CHO-K1 cells expressing hM1; for EC50: compound alone, before acetylcholine addition; for Emax: relative to the maximum for acetylcholine
Summary of the method: as §1

EC50 [1] | Emax [1] | EC50 [2] | Emax [2] | SMILES
> 10 µM | 24% | > 10 µM | < 5% | Cn1ccc(-c2ccc(Cn3cc(C(=O)NC4CCOC(C)(C)C4)c4occc4c3=O)c(F)c2)n1 (centres unmarked) [Compound D11, N-(2,2-dimethyltetrahydro-2H-pyran-4-yl)-5-(2-fluoro-4-(1-methyl-1H-pyrazol-3-yl)benzyl)-4-oxo-4,5-dihydrofuro[3,2-c]pyridine-7-carboxamide]
5.53 µM | 28% | > 10 µM | < 5% | Cc1cn2c(=O)n(Cc3ccc(-c4ccn(C)n4)cc3F)cc(C(=O)N[C@H]3CCCC[C@@H]3O)c2n1 [Compound B26, 6-(2-fluoro-4-(1-methyl-1H-pyrazol-3-yl)benzyl)-N-((1S,2S)-2-hydroxycyclohexyl)-2-methyl-5-oxo-5,6-dihydroimidazo[1,2-c]pyrimidine-8-carboxamide]
≥ 10 µM | 47% | > 10 µM | < 5% | Cn1cc(-c2ccc(Cn3cc(C(=O)N[C@H]4CCOC[C@@H]4O)c4ncncc4c3=O)c(F)c2)cn1 [Compound A90, 6-(2-fluoro-4-(1-methyl-1H-pyrazol-4-yl)benzyl)-N-((3R,4S)-3-hydroxytetrahydro-2H-pyran-4-yl)-5-oxo-5,6-dihydropyrido[4,3-d]pyrimidine-8-carboxamide]
≥ 10 µM | 61% | > 10 µM | < 5% | O=C(N[C@H]1CCOC[C@@H]1O)c1cn(Cc2ccc(-n3cccn3)cc2)c(=O)c2nccnc12 [Compound A56, 6-(4-(1H-pyrazol-1-yl)benzyl)-N-((3R,4S)-3-hydroxytetrahydro-2H-pyran-4-yl)-5-oxo-5,6-dihydropyrido[3,4-b]pyrazine-8-carboxamide]
> 10 µM | 57% | > 10 µM | < 5% | O=C(N[C@H]1CCOC[C@@H]1O)c1cn(Cc2ccc(-n3cccn3)cc2)c(=O)c2ccoc12 [Compound D2, 5-(4-(1H-pyrazol-1-yl)benzyl)-N-((3R,4S)-3-hydroxytetrahydro-2H-pyran-4-yl)-4-oxo-4,5-dihydrofuro[3,2-c]pyridine-7-carboxamide]
0.78 µM | 46% | > 10 µM | < 5% | Cc1cc(-c2cc(F)c(Cn3cc(C(=O)N[C@H]4CCCC[C@@H]4O)c4ncccc4c3=O)c(F)c2)ccn1 [Compound A37, 6-(2,6-difluoro-4-(2-methylpyridin-4-yl)benzyl)-N-((1S,2S)-2-hydroxycyclohexyl)-5-oxo-5,6-dihydro-1,6-naphthyridine-8-carboxamide]
1.66 µM | 60% | > 10 µM | < 5% | Cn1cc(-c2ccc(Cn3cc(C(=O)N[C@H]4CCCCC[C@@H]4O)c4ncccc4c3=O)cn2)cn1 [Compound A18, N-((1S,2S)-2-hydroxycycloheptyl)-6-((6-(1-methyl-1H-pyrazol-4-yl)pyridin-3-yl)methyl)-5-oxo-5,6-dihydro-1,6-naphthyridine-8-carboxamide]
≥ 10 µM | 33% | > 10 µM | < 5% | Cn1cc(-c2ccc(Cn3cc(C(=O)NCC(O)C(F)(F)F)c4nccnc4c3=O)c(F)c2)cn1 (centres unmarked) [Compound A81, 6-(2-fluoro-4-(1-methyl-1H-pyrazol-4-yl)benzyl)-5-oxo-N-(3,3,3-trifluoro-2-hydroxypropyl)-5,6-dihydropyrido[3,4-b]pyrazine-8-carboxamide]
